From patent US20140066370A1, “Polypeptide Conjugate” (priority 2009, published 2014) come the findings set out here.

The test system of series [1] is rats. Briefly: acute kaolin intake (pica, nausea) and chow intake in rats. In kind it is in vivo, rat. The settings on record: 30 nmol/kg/d, 24 hr post injection. On the procedure: To investigate possible nausea effects of the conjugate polypeptide, acute kaolin intake was measured in rats. Pica behavior (ingestion of dirt/clay) is a marker of nausea in rodents, typically associated with reduced food intake and weight loss. Pica can be assessed by measuring intake of the synthetic clay kaolin. […] Rats were acclimated to kaolin for 3 days as kaolin clay mixed in with regular chow. A 4 hr and a 24 hr baseline kaolin and chow intake were then measured. Subsequently, rats were fasted for approximately 16 hrs after which test compound was injected at the dose indicated below. At 24 hr post injection chow and kaolin consumption was measured.

For series [2] the following is noted: human kidney brush border membrane matrices, 5 hr incubation; detection limit 10%.

On to “HGEGTFTSDLSKQLEEEAVRLFIEWLKQGGPSKEIISGGGKCNTATCVLGRLSQELHRLQ TYPRTNTGSNTY-NH2 [Cmpd 2A]”, for which, in series [1], the Inhibited food intake entry is listed as “Yes ~68%” and the Kaolin intake came out at 0.3 g. Further, in series [2], the metabolites detected result was “No metabolites were detected”.
